The results in this text go back to ChEMBL document CHEMBL1134282 (J Med Chem, 2001).

One assay addresses Acetylcholinesterase (Homo sapiens, UniProt P22303). The experiment in a line: In vitro inhibition of human erythrocyte acetylcholinesterase.
The next assay deals with Cholinesterase (Homo sapiens, UniProt P06276). The experiment in a line: In vitro inhibition of human plasma butyrylcholinesterase. It counts as cell-free.

Some results are limits rather than exact numbers.

Chain of Acetylcholinesterase (P22303 whole entry): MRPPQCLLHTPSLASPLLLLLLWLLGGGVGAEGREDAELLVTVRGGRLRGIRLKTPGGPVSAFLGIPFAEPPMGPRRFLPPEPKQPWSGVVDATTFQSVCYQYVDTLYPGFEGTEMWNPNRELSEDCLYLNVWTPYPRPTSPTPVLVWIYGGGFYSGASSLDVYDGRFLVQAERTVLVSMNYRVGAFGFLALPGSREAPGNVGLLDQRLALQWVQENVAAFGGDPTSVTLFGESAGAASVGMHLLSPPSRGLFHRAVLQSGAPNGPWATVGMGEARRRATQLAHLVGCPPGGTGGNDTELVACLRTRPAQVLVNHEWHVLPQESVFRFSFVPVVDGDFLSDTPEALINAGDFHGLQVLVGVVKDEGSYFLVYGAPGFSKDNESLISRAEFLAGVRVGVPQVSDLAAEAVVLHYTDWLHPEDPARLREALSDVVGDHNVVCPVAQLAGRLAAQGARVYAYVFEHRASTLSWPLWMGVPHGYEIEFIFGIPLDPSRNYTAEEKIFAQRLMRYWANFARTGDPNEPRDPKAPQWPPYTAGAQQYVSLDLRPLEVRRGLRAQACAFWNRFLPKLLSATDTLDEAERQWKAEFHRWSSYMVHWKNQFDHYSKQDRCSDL
Chain of Cholinesterase (P06276 whole entry): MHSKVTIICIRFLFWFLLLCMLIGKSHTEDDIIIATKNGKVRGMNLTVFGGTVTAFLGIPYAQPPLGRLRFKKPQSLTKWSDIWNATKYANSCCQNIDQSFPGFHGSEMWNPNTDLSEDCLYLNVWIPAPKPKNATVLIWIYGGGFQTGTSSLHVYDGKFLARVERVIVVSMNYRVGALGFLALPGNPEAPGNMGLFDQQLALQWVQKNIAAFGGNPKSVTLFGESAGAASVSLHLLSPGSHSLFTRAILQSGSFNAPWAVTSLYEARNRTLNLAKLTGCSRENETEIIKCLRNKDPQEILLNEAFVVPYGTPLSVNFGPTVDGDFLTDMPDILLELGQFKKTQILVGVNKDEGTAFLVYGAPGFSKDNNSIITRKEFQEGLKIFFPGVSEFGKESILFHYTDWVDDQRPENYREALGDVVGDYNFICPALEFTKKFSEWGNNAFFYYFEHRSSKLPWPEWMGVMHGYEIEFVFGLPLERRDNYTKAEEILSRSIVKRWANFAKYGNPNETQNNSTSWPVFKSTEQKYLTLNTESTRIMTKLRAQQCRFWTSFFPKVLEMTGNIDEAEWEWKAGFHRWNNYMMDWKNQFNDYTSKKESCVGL

As a reminder, the IC50 is the concentration that inhibits the measured activity by half. Read a high IC50 as weaker potency. In the case of `CC(C)c1ccccc1NC(=O)Oc1ccc2c(c1)[C@]1(C)CCN(C)[C@@H]1N2C`, the IC50 came out at 15 nM against Acetylcholinesterase and 650 nM at Cholinesterase. On to `Cc1ccc(NC(=O)Oc2ccc3c(c2)[C@]2(C)CCN(C)[C@@H]2N3C)cc1C`, for which the IC50 on Acetylcholinesterase turned out to be 31 nM; against Cholinesterase, 66 nM.

As for `Cc1cc(C)cc(NC(=O)Oc2ccc3c(c2)[C@]2(C)CCN(C)[C@@H]2N3C)c1`, the figures for the IC50 at Acetylcholinesterase and against Cholinesterase were 78 nM and 798 nM, respectively. In the same order, the values of `Cc1cccc(NC(=O)Oc2ccc3c(c2)[C@]2(C)CCN(C)[C@@H]2N3C)c1` are 28 nM and 165 nM. As to `CN(C(=O)Oc1ccc2c(c1)[C@]1(C)CCN(C)[C@@H]1N2C)c1ccccc1`, the IC50 against Acetylcholinesterase is 690 nM; at Cholinesterase it was more than 10000 nM. Regarding `CN(C)Cc1cc2c(cc1OC(=O)Nc1ccccc1)[C@]1(C)CCN(C)[C@@H]1N2C`, the IC50 is 2500 nM against Acetylcholinesterase and 3890 nM against Cholinesterase.

Regarding `Cc1cc2c(cc1OC(=O)Nc1ccccc1)[C@]1(C)CCN(C)[C@@H]1N2C`, the IC50 against Acetylcholinesterase is 260 nM; against Cholinesterase, 5020 nM.

Take `CNC(=O)Oc1cc2c(cc1C)N(C)[C@H]1N(C)CC[C@@]21C`: the IC50 on Acetylcholinesterase is more than 10000 nM; on Cholinesterase, 8530 nM. Consider `CCc1cccc(CC)c1NC(=O)Oc1ccc2c(c1)[C@]1(C)CCN(C)[C@@H]1N2C`, for which, on Cholinesterase, the IC50 stood at 1100 nM. For `Cc1ccc(NC(=O)Oc2ccc3c(c2)[C@]2(C)CCN(C)[C@@H]2N3C)c(C)c1`, the IC50 against Acetylcholinesterase came out at 14 nM. Consider `Cc1cccc(NC(=O)Oc2ccc3c(c2)[C@]2(C)CCN(C)[C@@H]2N3C)c1C`, for which the IC50 on Acetylcholinesterase amounted to 23 nM; against Cholinesterase it was 170 nM. In the same order, the values of `Cc1ccc(C)c(NC(=O)Oc2ccc3c(c2)[C@]2(C)CCN(C)[C@@H]2N3C)c1` are 26 nM and 490 nM. In the case of `Cc1cccc(C)c1NC(=O)Oc1ccc2c(c1)[C@]1(C)CCN(C)[C@@H]1N2C`, the half-inhibitory concentration (IC50) at Acetylcholinesterase was found to be 785 nM; against Cholinesterase it was 290 nM. Turning to `CCc1ccccc1NC(=O)Oc1ccc2c(c1)[C@]1(C)CCN(C)[C@@H]1N2C` [ETHYLPHENSERINE], the IC50 on Acetylcholinesterase is 10 nM. Consider `CN1CC[C@@]2(C)c3cc(OC(=O)Nc4ccccc4)ccc3N(C)[C@@H]12` [PHENSERINE], for which, on Cholinesterase, the IC50 was found to be 1560 nM.
